# In patent US9296741B2, “Bromodomain inhibitors” (priority 2012, dated 2016):
# Marks after values point to notes of the source that are not given here.
# What was measured:
# [1] = tested on: SKM1 human cancer cell xenograft; experiment: Xenograft efficacy study, SKM1; format: in vivo, mouse
# [2] = tested on: MV4-11 human cancer cell xenograft; experiment: Xenograft efficacy study, MV4-11; format: in vivo, mouse; conditions: 250 mg/kg/day, IP, BID Q7Dx3, vehicle C
# [3] = tested on: rat collagen induced arthritis (rCIA) paw swelling; conditions: rCIA, dosed at 3 mg/kg (positive control) once daily day 10-17
# [4] = tested on: OPM-2 human multiple myeloma xenograft tumors; experiment: animal or person; conditions: Mus musculus, OPM-2, po, PO, vehicle A
# [5] = Mouse liver microsome stability assay; format: in vitro ADME; conditions: male, CD1, mouse, microsomes, pH 7.4
# [6] = target: human BRD4 second bromodomain (BDII_E352-M457) (Homo sapiens (Human), UniProt O60885); experiment: TR-FRET bromodomain binding assay, BRD4 second bromodomain
# [7] = tested on: breast cancer cell line MX-1; experiment: MX-1 cell line proliferation assay; format: cell-based, human; conditions: Homo sapiens, MX1, 72 h; MX-1 cells, 3-day proliferation, Cell Titer Glo; read-out: Cellular proliferation: EC50
# [8] = Human liver microsome stability assay; format: in vitro ADME; conditions: both sexes, human, microsomes, pH 7.4
# [9] = Rat liver microsome stability assay; format: in vitro ADME; conditions: rat liver microsomes (male Sprague-Dawley), 0.5 μM test compound, 0.25 mg/mL microsomal protein, pH 7.4, 37° C.; read-out: Stability in rat liver microsomes (t1/2 in minutes)
# [10] = tested on: MX-1 human breast cancer xenograft tumors; experiment: Xenograft tumor growth inhibition assay, MX-1; format: in vivo, mouse; conditions: MX-1, PO, vehicle F
# [11] = tested on: LPS induced IL-6 production; experiment: LPS (lipopolysaccharide) induced IL-6 production mouse assay; format: in vivo; conditions: Mus musculus, read-out: Inhibition of LPS induced IL-6 production in Mice, % inhibition at 3 mg/kg; 3 mg/kg oral, 1 h before LPS; serum IL-6 2 h after LPS
# [12] = target: human BRD4 first bromodomain (BDI_K57-E168) (Homo sapiens (Human), UniProt O60885); experiment: TR-FRET bromodomain binding assay, BRD4 first bromodomain
# [13] = 250 mg/kg/day, IP, BID Q7Dx3, vehicle C
# [14] = 3 mg/kg/day, QD (5 on, 3 off, 5 on)
# [15] = 6 mg/kg/day, IV, Q7Dx3, vehicle C
compound,measurement,setting,value
Nc1ccn([C@@H]2O[C@H](CO)[C@@H](O)[C@@H]2O)c(=O)n1 [cytarabine],% TGD (tumor growth delay),[1]; [13],30%
same,% TGI (tumor growth inhibition),[1]; [13],20%
same,% removed from study,[1]; [13],0%
same,% TGD (tumor growth delay),[2],37*** %
same,% TGI (tumor growth inhibition),[2],47*** %
same,% removed from study,[2],0%
"C[C@]12C=CC(=O)C=C1CC[C@@H]1[C@@H]2[C@@H](O)C[C@@]2(C)[C@H]1CC[C@]2(O)C(=O)CO [Prednisolone, prednisolone, reference compound]","AUC of Paw Swelling, MEAN",[3],0.67** ml-day
"Cn1cc(-c2cc(NS(C)(=O)=O)ccc2Oc2ccc(F)cc2F)c2cc[nH]c2c1=O [Example 27, N-[4-(2,4-difluorophenoxy)-3-(6-methyl-7-oxo-6,7-dihydro-1H-pyrrolo[2,3-c]pyridin-4-yl)phenyl]methanesulfonamide]",change in vivo at 1 mg/kg,"[4]; read-out: % TGD (tumor growth delay), OPM-2, 1 mg/kg/day, QDx14",-2%
same,change in vivo at 3 mg/kg,"[4]; read-out: % TGD (tumor growth delay), OPM-2, 3 mg/kg/day, QD (5 on, 3 off, 5 on)",7%
same,inhibition in vivo at 1 mg/kg,"[4]; read-out: % TGI (tumor growth inhibition), OPM-2, 1 mg/kg/day, QDx14",59%
same,inhibition in vivo at 3 mg/kg,"[4]; read-out: % TGI (tumor growth inhibition), OPM-2, 3 mg/kg/day, QD (5 on, 3 off, 5 on)",67%
same,half-life at 0.5 μM,[5],59 min
same,Ki,[6],2.2 nM
same,EC50,[7],31.7 nM
same,half-life at 0.5 μM,[8],32 min
same,half-life at 0.5 μM,[9],> 120 min
same,% TGD (tumor growth delay),"[10]; 0.3 mg/kg/day, QD",35%
same,% TGI (tumor growth inhibition),"[10]; 0.3 mg/kg/day, QD",38** %
same,% removed from study,"[10]; 0.3 mg/kg/day, QD",0%
same,% TGD (tumor growth delay),"[10]; 1 mg/kg/day, QD",13%
same,% TGI (tumor growth inhibition),"[10]; 1 mg/kg/day, QD",57*** %
same,% removed from study,"[10]; 1 mg/kg/day, QD",0%
same,% TGI (tumor growth inhibition),[10]; [14],69*** %
same,% removed from study,[10]; [14],0%
same,inhibition in vivo at 3 mg/kg,[11],89%
same,Ki,[12],2.5 nM
Nc1ncn([C@@H]2O[C@H](CO)[C@@H](O)[C@H]2O)c(=O)n1 [azacitidine],% TGD (tumor growth delay),[1]; [15],98* %
same,% TGI (tumor growth inhibition),[1]; [15],54** %
same,% removed from study,[1]; [15],0%
